Measured values: patent publication US20050170481A1, “Novel (d)-2-hydroxy-acid oxidase derived from microorganism and biochemical process for producing glyoxylic acid therewith” (priority 2002, published 2005)

Biological target: T1, glycolate oxidase (produced by Sigma Corporation) derived from spinach (Spinacia oleracea, UniProt P05414)
T1 construct: purchased Sigma Corporation
T1 sequence (P05414 1-369): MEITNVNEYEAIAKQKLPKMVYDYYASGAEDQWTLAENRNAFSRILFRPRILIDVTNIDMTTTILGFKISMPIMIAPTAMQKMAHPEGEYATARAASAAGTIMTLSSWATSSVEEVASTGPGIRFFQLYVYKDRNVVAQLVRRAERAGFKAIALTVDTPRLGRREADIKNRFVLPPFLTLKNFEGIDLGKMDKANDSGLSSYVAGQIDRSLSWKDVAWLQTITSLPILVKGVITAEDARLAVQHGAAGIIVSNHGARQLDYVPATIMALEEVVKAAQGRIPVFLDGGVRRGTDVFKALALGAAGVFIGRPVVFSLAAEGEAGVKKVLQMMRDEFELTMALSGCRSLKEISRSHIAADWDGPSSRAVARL
Assay: Substrate specificity of glycolate oxidase derived from spinach
Assay type: biochemical
Details: Table 1; activity for glycolic acid regarded as 100%
Description: In Table 1, the activity of each enzyme for glycolic acid is […] regarded as 100%.
(§1) The enzyme activity was basically measured by reacting 1.0 ml of a reaction solution containing 10 mM of a substrate such as glycolic acid, 0.67 mM of 4-AA, 1.09 mM of TOOS, 2 U/ml of POD, and 0.1 ml of an enzyme solution in a 100 mM phosphate buffer or Tris buffer at 30° C. for 100 seconds, and then measuring an increase in absorbance at a wavelength of 555 nm.
The activity of glycolate oxidase (produced by Sigma Corporation) derived from spinach was examined for various 2-hydroxy acid compounds, and the results were compared with the results of the enzyme of the present invention produced in Example […].

Compound | Relative activity (%), Spinach [%]
O=C(O)CO [Glycolic acid] | 100
CCCC(O)C(=O)O (racemic) [DL-2-hydroxyvaleric acid] | 70
CC(C)C[C@H](O)C(=O)O [L-2-hydroxyisocaproic acid] | 68
O=CC(=O)O [Glyoxylic acid] | 8
CCCCC(O)C(=O)O (racemic) [DL-2-hydroxycaproic acid] | 29
CC(C)CC(O)C(=O)O (racemic) [DL-2-hydroxyisocaproic acid] | 51
C[C@@H](O)C(=O)O [D-lactic acid] | 0
CCC(O)C(=O)O (racemic) [DL-2-hydroxybutyric acid] | 71
C[C@H](O)C(=O)O [L-lactic acid] | 81

Same assay, conditions: Table 3; Substrate 10 mM

Compound | Relative activity (%), Spinach [%]
O=C(O)CO [Glycolic acid] | 100
CCCC(O)C(=O)O (racemic) [DL-2-hydroxyvaleric acid] | 70
CC(C)C[C@H](O)C(=O)O [L-2-hydroxyisocaproic acid] | 68
O=C(O)C(O)CO (racemic) [DL-glyceric acid] | 76
CCCCC(O)C(=O)O (racemic) [DL-2-hydroxycaproic acid] | 29
CC(C)CC(O)C(=O)O (racemic) [DL-2-hydroxyisocaproic acid] | 51
C[C@@H](O)C(=O)O [D-lactic acid] | 0
CCC(O)C(=O)O (racemic) [DL-2-hydroxybutyric acid] | 71
C[C@H](O)C(=O)O [L-lactic acid] | 81

System: glycolate oxidase
Assay: not given
Details: Table 1; activity for glycolic acid regarded as 100%; J. Biochem., 16, 1373-1378, 1984; cited from earlier work

Compound | Relative Activity (%), Lemna minor [%]
O=C(O)CO [Glycolic acid] | 100
CCCC(O)C(=O)O (racemic) [DL-2-hydroxyvaleric acid] | 52
CC(C)C[C@H](O)C(=O)O [L-2-hydroxyisocaproic acid] | 30
O=CC(=O)O [Glyoxylic acid] | 35
CCCCC(O)C(=O)O (racemic) [DL-2-hydroxycaproic acid] | 13
C[C@@H](O)C(=O)O [D-lactic acid] | 7
CCC(O)C(=O)O (racemic) [DL-2-hydroxybutyric acid] | 57
C[C@H](O)C(=O)O [L-lactic acid] | 60

System: lactic acid oxidase derived from soil gram-negative bacteria
Assay: not given
Details: Appl. Biochem. Biotechnol., 56, 277-288, 1996; cited from earlier work

Compound | activity for L-lactic acid as rate of the activity for D-lactic acid [%]
C[C@H](O)C(=O)O [L-lactic acid] | 57

System: (D)-2-hydroxy-acid oxidase (enzyme of the present invention)
Assay: Oxidase reaction activity (H2O2 / 4-AA / TOOS / POD, absorbance at 555 nm), substrate specificity
Assay type: biochemical, Arthrobacter sp. KNK-GA1 strain
Details: Table 1; activity for glycolic acid regarded as 100%
Description: The reaction activity of oxidase is basically measured by adding 0.1 ml of an enzyme solution to 0.9 ml of a 100 mM phosphate buffer (pH 7) having the composition below, and measuring an increase in absorbance at a wavelength of 555 nm at 30° C. In the present invention, when 1 μmol of H2O2 is produced for 1 minute, the enzyme activity is defined as 1 unit.
The enzymatic properties of the enzyme produced in Example 6 were measured.
as §1

Compound | Relative activity (%), Enzyme of this invention [%]
O=C(O)CO [Glycolic acid] | 100
CCCC(O)C(=O)O (racemic) [DL-2-hydroxyvaleric acid] | 32
CC(C)C[C@H](O)C(=O)O [L-2-hydroxyisocaproic acid] | 0
O=CC(=O)O [Glyoxylic acid] | 4
CCCCC(O)C(=O)O (racemic) [DL-2-hydroxycaproic acid] | 7
CC(C)CC(O)C(=O)O (racemic) [DL-2-hydroxyisocaproic acid] | 10
C[C@@H](O)C(=O)O [D-lactic acid] | 82
CCC(O)C(=O)O (racemic) [DL-2-hydroxybutyric acid] | 42
C[C@H](O)C(=O)O [L-lactic acid] | 0

Same assay, conditions: Table 2; Substrate 10 mM, 30° C., 100 seconds

Compound | Relative activity (%)
OCC(O)CO [Glycerin] | 0
CC(O)CO (stereo not shown) [1,2-propanediol] | 0
CC(C)O [2-propanol] | 0
O=C(O)CO [Glycolic acid] | 100
CCO [Ethanol] | 0
CCCC(O)C(=O)O (racemic) [DL-2-hydroxyvaleric acid] | 32
CC(C)C[C@H](O)C(=O)O [L-2-hydroxyisocaproic acid] | 0
CO [Methanol] | 0
O=C(O)C(O)CO (racemic) [DL-glyceric acid] | 54
1-propanol | 0
O=C(O)CC(O)C(=O)O (racemic) [DL-malic acid] | 0
O=C(O)CCO [β-hydroxypropionic acid] | 1
CCCCC(O)C(=O)O (racemic) [DL-2-hydroxycaproic acid] | 7
CC(C)CC(O)C(=O)O (racemic) [DL-2-hydroxyisocaproic acid] | 10
C[C@@H](O)C(=O)O [D-lactic acid] | 82
OCCO [Ethylene glycol] | 0
CCC(O)C(=O)O (racemic) [DL-2-hydroxybutyric acid] | 42
C[C@H](O)C(=O)O [L-lactic acid] | 0

Same assay, conditions: Table 3; Substrate 10 mM

Compound | Relative activity (%), Enzyme of this invention [%]
O=C(O)CO [Glycolic acid] | 100
CCCC(O)C(=O)O (racemic) [DL-2-hydroxyvaleric acid] | 32
CC(C)C[C@H](O)C(=O)O [L-2-hydroxyisocaproic acid] | 0
O=C(O)C(O)CO (racemic) [DL-glyceric acid] | 54
CCCCC(O)C(=O)O (racemic) [DL-2-hydroxycaproic acid] | 7
CC(C)CC(O)C(=O)O (racemic) [DL-2-hydroxyisocaproic acid] | 10
C[C@@H](O)C(=O)O [D-lactic acid] | 82
CCC(O)C(=O)O (racemic) [DL-2-hydroxybutyric acid] | 42
C[C@H](O)C(=O)O [L-lactic acid] | 0

Same assay, conditions: summary of Table 1

Compound | activity of the (D)-2-hydroxy-acid oxidase for the substrate (in words)
O=C(O)CO [Glycolic acid] | high activity
CC(C)C[C@H](O)C(=O)O [L-2-hydroxyisocaproic acid] | no activity
O=CC(=O)O [Glyoxylic acid] | relatively low activity
CC(C)CC(O)C(=O)O (racemic) [DL-2-hydroxyisocaproic acid] | shows activity
C[C@@H](O)C(=O)O [D-lactic acid] | high activity
C[C@H](O)C(=O)O [L-lactic acid] | no activity

System: glycolate oxidase
Assay: not given
Details: Table 1; activity for glycolic acid regarded as 100%; J. Phycol., 32, 790-798, 1996; cited from earlier work

Compound | Relative Activity (%), Spatoglossum pacificum [%]
O=C(O)CO [Glycolic acid] | 100
CCCC(O)C(=O)O (racemic) [DL-2-hydroxyvaleric acid] | 91
CC(C)C[C@H](O)C(=O)O [L-2-hydroxyisocaproic acid] | 77
O=CC(=O)O [Glyoxylic acid] | 14
C[C@@H](O)C(=O)O [D-lactic acid] | 0
CCC(O)C(=O)O (racemic) [DL-2-hydroxybutyric acid] | 55
C[C@H](O)C(=O)O [L-lactic acid] | 26
